In patent EP0164635A2, “Imidazothiazolemethylene-acetohydrazide derivatives, preparation thereof and pharmaceutical composition having diuretic activity” (MEDIOLANUM FARMACEUTICI s.r.l., priority 1984, dated 1985):

Experiments:
[1] = system: rats; experiment: Diuretic activity: urinary sodium excretion over 6 hours after oral administration; type: in vivo, rat; conditions: read-out: Diuretic effect %; for response vs control in vivo at 20 mg/kg: dose 20 mg/kg oral; for response vs control in vivo at 5 mg/kg: dose 5 mg/kg oral
Method: The first series of tests was carried out to rats orally administered with distilled water (25 ml/kg) containing the product under test, previously suspended in Tween 80 (1% v/v with respect to water). Urina of the 6 hours following the treatment was collected in order to measure the sodium concentration, by means of atomic absorption. The ratio of the meq/100 g of body weight of the treated animals to the corresponding ratio of the meq/100 g of body weight of the control animals (treated with the sole vehicle) was calculated, in order to determine the dose of the test compound doubling or trebling or anyway increasing the sodium excretion.

[2] = in vivo; conditions: rat
[3] = system: rat; experiment: Excreted urinary electrolytes after oral administration, with a second water load after 0-3 h; type: in vivo
Method: (§1) The compounds were administered by the oral route, under the same conditions as described in the previous test, but the animals, after the O-3 hours interval, were treated with further 25 ml/kg of distilled water, by intubation.

[4] = system: rat; experiment: Excreted urinary volumes after oral administration, with a second water load after 0-3 h; type: in vivo
Method: as §1

[5] = rat, sodium urinary excretion in 6 h vs controls (control = 100)

## CC(=O)Nc1nnc(S(N)(=O)=O)s1 [Acetazolamide, acetazolamide, reference compound]
[1]; Rattus norvegicus, po, 6 h
  response vs control in vivo at 2.5 mg/kg: 200%

## CN(C)CC(=O)NN=Cc1c(Cl)nc2sccn12 [Example 1]
[1]; [5]
  response vs control in vivo at 20 mg/kg: 120%
[2]; ip
  LD50: ~250 mg/kg
[2]; po
  LD50: ~1500 mg/kg

## Cc1nc2sccn2c1C=NNC(=O)CN(C)C [Example 2]
[2]; ip
  LD50: ~600 mg/kg
[2]; po
  LD50: ~1500 mg/kg

## CN(C)CC(=O)NN=Cc1c(-c2ccccc2)nc2sccn12 [Example 3]
[1]; [5]
  response vs control in vivo at 5 mg/kg: 310%
[2]; ip
  LD50: ~600 mg/kg
[2]; po
  LD50: ~600 mg/kg

## CN(C)CC(=O)NN=Cc1c(-c2ccc(Cl)cc2)nc2sccn12 [Example 4]
[1]; [5]
  response vs control in vivo at 20 mg/kg: 170%
[2]; ip
  LD50: > 1000 mg/kg
[2]; po
  LD50: > 1000 mg/kg

## Cc1ccc(-c2nc3sccn3c2C=NNC(=O)CN(C)C)cc1 [Example 5]
[1]; [5]
  response vs control in vivo at 5 mg/kg: 130%
[2]; ip
  LD50: > 3000 mg/kg
[2]; po
  LD50: > 3000 mg/kg

## Cc1cn2c(C=NNC(=O)CN(C)C)c(C)nc2s1 [Example 6, N,N-dimethylamino-acetyl-[[2-methyl-6-methyl-imidazo[2,1-a]thiazole-5-yl]methylene]-hydrazide]
[1]; dose 10 mg/kg oral, rat, sodium urinary excretion in 6 h vs controls (control = 100)
  response vs control in vivo at 10 mg/kg: 180%
[2]; ip
  LD50: ~600 mg/kg
[2]; po
  LD50: ~1000 mg/kg

## Cc1csc2nc(-c3ccccc3)c(C=NNC(=O)CN(C)C)n12 [Example 7]
[3]; 10 mg/kg, 0-3 h
  EXCRETED URINARY ELECTROLYTES WITH RESPECT TO BODY WEIGHT, Cl^-: 2.55 mEq/kg
  EXCRETED URINARY ELECTROLYTES WITH RESPECT TO BODY WEIGHT, K^+: 1.04 mEq/kg
  EXCRETED URINARY ELECTROLYTES WITH RESPECT TO BODY WEIGHT, Na^+: 2.55 mEq/kg
[3]; 10 mg/kg, 0-6 h
  EXCRETED URINARY ELECTROLYTES WITH RESPECT TO BODY WEIGHT, Cl^-: 2.57 mEq/kg
  EXCRETED URINARY ELECTROLYTES WITH RESPECT TO BODY WEIGHT, K^+: 1.29 mEq/kg
  EXCRETED URINARY ELECTROLYTES WITH RESPECT TO BODY WEIGHT, Na^+: 2.71 mEq/kg
[3]; 10 mg/kg, 3-6 h
  EXCRETED URINARY ELECTROLYTES WITH RESPECT TO BODY WEIGHT, Cl^-: 0.025 mEq/kg
  EXCRETED URINARY ELECTROLYTES WITH RESPECT TO BODY WEIGHT, K^+: 0.25 mEq/kg
  EXCRETED URINARY ELECTROLYTES WITH RESPECT TO BODY WEIGHT, Na^+: 0.16 mEq/kg
[3]; head prints 10 mg/kg, 0-3 h
  EXCRETED URINARY ELECTROLYTES WITH RESPECT TO BODY WEIGHT, Cl^-: 1.53 mEq/kg
  EXCRETED URINARY ELECTROLYTES WITH RESPECT TO BODY WEIGHT, K^+: 0.93 mEq/kg
  EXCRETED URINARY ELECTROLYTES WITH RESPECT TO BODY WEIGHT, Na^+: 2.03 mEq/kg
[3]; head prints 10 mg/kg, 0-6 h
  EXCRETED URINARY ELECTROLYTES WITH RESPECT TO BODY WEIGHT, Cl^-: 1.53 mEq/kg
  EXCRETED URINARY ELECTROLYTES WITH RESPECT TO BODY WEIGHT, K^+: 1.26 mEq/kg
  EXCRETED URINARY ELECTROLYTES WITH RESPECT TO BODY WEIGHT, Na^+: 2.17 mEq/kg
[3]; head prints 10 mg/kg, 3-6 h
  EXCRETED URINARY ELECTROLYTES WITH RESPECT TO BODY WEIGHT, Cl^-: 0.0 mEq/kg
  EXCRETED URINARY ELECTROLYTES WITH RESPECT TO BODY WEIGHT, K^+: 0.33 mEq/kg
  EXCRETED URINARY ELECTROLYTES WITH RESPECT TO BODY WEIGHT, Na^+: 0.14 mEq/kg
[1]; dose 0.5 mg/kg oral, rat, sodium urinary excretion in 6 h vs controls (control = 100)
  response vs control in vivo at 0.5 mg/kg: 250%
[2]; ip
  LD50: > 3000 mg/kg
[2]; po
  LD50: > 3000 mg/kg
[4]; 2.5 mg/kg, 0-3 h
  EXCRETED URINARY VOLUMES WITH RESPECT TO BODY WEIGHT: 0.0333 L/kg
[4]; 2.5 mg/kg, 0-6 h
  EXCRETED URINARY VOLUMES WITH RESPECT TO BODY WEIGHT: 0.0469 L/kg
[4]; 2.5 mg/kg, 3-6 h
  EXCRETED URINARY VOLUMES WITH RESPECT TO BODY WEIGHT: 0.0136 L/kg
[4]; 10 mg/kg, 0-3 h
  EXCRETED URINARY VOLUMES WITH RESPECT TO BODY WEIGHT: 0.0326 L/kg
[4]; 10 mg/kg, 0-6 h
  EXCRETED URINARY VOLUMES WITH RESPECT TO BODY WEIGHT: 0.0474 L/kg
[4]; 10 mg/kg, 3-6 h
  EXCRETED URINARY VOLUMES WITH RESPECT TO BODY WEIGHT: 0.0147 L/kg
